# Source: the NIST ThermoML archive (doi:10.1016/j.jct.2016.10.006)
# ± gives the expanded uncertainty stated by the source.
# Key:
# [1] = Molar enthalpy of transition or fusion; details: Crystal; DSC
# [2] = Crystal; DTA
compound,measurement,setting,value
Cn1cnc([N+](=O)[O-])c1Cl [5-chloro-1-methyl-4-nitroimidazole],Molar enthalpy of transition or fusion,[1],22.4 ± 0.93 kJ/mol
same,Normal melting temperature,[2],148.20 ± 1.1 °C
